For 67 compounds, Potency and IC50 results are on record in ChEMBL document CHEMBL1122916, “Synthesis of xanthines as adenosine antagonists, a practical quantitative structure-activity relationship application” (J Med Chem, 1985).

The IC50 is the midpoint of a concentration-inhibition curve.

The species named for one assay is Bos taurus. Kind of assay: log(1000/IC50 determined from bovine brain membrane) expressed as potency. It is filed as functional.
Assay [1] has as its target T1, Adenosine receptor A1 (Bos taurus, UniProt P28190).
T1 sequence (P28190 whole entry): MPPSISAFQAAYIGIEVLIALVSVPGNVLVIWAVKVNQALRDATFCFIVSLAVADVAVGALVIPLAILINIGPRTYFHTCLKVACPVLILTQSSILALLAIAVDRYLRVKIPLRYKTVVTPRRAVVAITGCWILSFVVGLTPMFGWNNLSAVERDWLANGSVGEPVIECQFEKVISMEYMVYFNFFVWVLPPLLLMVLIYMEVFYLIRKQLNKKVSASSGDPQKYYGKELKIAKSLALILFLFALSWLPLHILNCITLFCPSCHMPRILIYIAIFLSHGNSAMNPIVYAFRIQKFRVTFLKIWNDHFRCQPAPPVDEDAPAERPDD
Description: Binding affinity against bovine brain adenosine A1 receptor by using N6-[3H]- cyclohexyladenosine

The target in assay [2] is T2, Adenosine receptor A1 (Rattus norvegicus, UniProt P25099).
T2 sequence (P25099 whole entry): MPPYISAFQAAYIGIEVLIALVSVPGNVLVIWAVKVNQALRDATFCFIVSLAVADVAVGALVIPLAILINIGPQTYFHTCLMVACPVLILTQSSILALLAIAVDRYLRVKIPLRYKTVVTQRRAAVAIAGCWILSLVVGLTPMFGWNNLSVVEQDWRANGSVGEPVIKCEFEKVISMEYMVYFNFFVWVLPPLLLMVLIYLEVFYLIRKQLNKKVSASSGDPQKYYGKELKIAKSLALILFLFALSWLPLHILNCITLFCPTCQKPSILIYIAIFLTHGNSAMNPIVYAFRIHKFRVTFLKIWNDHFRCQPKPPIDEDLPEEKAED
In words: Binding affinity against rat brain adenosine A1 receptor by using N6-[3H]- cyclohexyladenosine as radioligand.

On to `COc1cc(OC)cc(-c2nc3c(=O)n(C)c(=O)n(C)c3[nH]2)c1`, for which the Potency in the assay listed under Bos taurus was found to be 0.3.
For `Cn1c(=O)c2nc(-c3ccccc3N)[nH]c2n(C)c1=O`, the midpoint of inhibition at Adenosine receptor A1 [1], the IC50, lay at 5.5 nM. Further, the Potency in the assay filed under Bos taurus was determined as 2.26.
For `Cn1c(=O)c2nc(-c3ccc([N+](=O)[O-])cc3)[nH]c2n(C)c1=O`, the Potency in the assay listed under Bos taurus is 2.1.
Still for that read-out and setting: for `Cn1c(=O)c2nc(-c3ccc(-c4ccccc4)cc3)[nH]c2n(C)c1=O` the value was 2.46; for `Cc1cccc(-c2nc3c(=O)n(C)c(=O)n(C)c3[nH]2)c1`, 1.89; for `CCn1c(=O)c2nc(-c3ccc(Cl)cc3N)[nH]c2n(CC)c1=O`, 3.1.
On to `C=CCn1c(=O)c2nc(-c3ccc(S(=O)(=O)NCCCN(C)C)cc3)[nH]c2n(CC=C)c1=O`, for which inhibition against Adenosine receptor A1 [1] was half-maximal at 10.3 nM (IC50).
The compound `CCOc1ccc(-c2nc3c(=O)n(C)c(=O)n(C)c3[nH]2)cc1` had a Potency in the assay filed under Bos taurus of 2.7.
On the same count and under the same terms, under `Cn1c(=O)c2nc(-c3ccc(Cl)cc3)[nH]c2n(C)c1=O` stands 3.1.
As to `Cn1c(=O)c2[nH]c(-c3ccc4ccccc4c3)nc2n(C)c1=O`, inhibition on Adenosine receptor A1 [1] was half-maximal at 5.5 nM (IC50).
Turning to `CCCn1c(=O)c2nc(-c3ccccc3)[nH]c2n(CCC)c1=O`, the Potency in the assay listed under Bos taurus turned out to be 3.15.
For the compound `CCn1c(=O)c2nc(-c3cccc(S(=O)(=O)NCCN(C)C)c3)[nH]c2n(CC)c1=O`, the IC50 on Adenosine receptor A1 [1] came out at 29.4 nM; on Adenosine receptor A1 [2] it was 553 nM.
In the assay listed under Bos taurus, `C=CCn1c(=O)c2[nH]c(-c3ccc(C)cc3N)nc2n(C)c1=O` came in with a Potency of 2.15.
On the same count and under the same terms, under `Cc1ccccc1-c1nc2c(=O)n(C)c(=O)n(C)c2[nH]1` stands 2.19; under `Cn1c(=O)c2nc(-c3ccccc3C(=O)O)[nH]c2n(C)c1=O`, -0.4.
As for `CCn1c(=O)c2[nH]c(-c3ccc(N(C)C)cc3)nc2n(CC)c1=O`, the values for the IC50 at Adenosine receptor A1 [1] and on Adenosine receptor A1 [2] were 3.3 nM and 118 nM, respectively.
As for `Cn1c(=O)c2[nH]c(-c3ccc(Br)cc3)nc2n(C)c1=O`, the IC50 at Adenosine receptor A1 [1] turned out to be 0.75 nM.
Compound `CCc1ccc(-c2nc3c(=O)n(C)c(=O)n(C)c3[nH]2)cc1` gave a Potency in the assay filed under Bos taurus of 3.1.
In the assay filed under Bos taurus, `CN(C)c1ccc(-c2nc3c(=O)n(C)c(=O)n(C)c3[nH]2)cc1` yielded a Potency of 2.74.
Still for that read-out and setting: under `Cn1c(=O)c2nc(-c3ccc(Br)cc3)[nH]c2n(C)c1=O` stands 3.12.
Consider `CCn1c(=O)c2[nH]c(-c3ccc(S(=O)(=O)NCCCN(C)C)cc3)nc2n(CC)c1=O`, for which the IC50 at Adenosine receptor A1 [1] was 1.6 nM; at Adenosine receptor A1 [2], 70 nM.
Turning to `Cn1c(=O)c2nc(-c3ccccc3F)[nH]c2n(C)c1=O`, the Potency in the assay filed under Bos taurus stood at 1.9.
As to `Cn1c(=O)c2nc(-c3ccc(Cl)c(Cl)c3)[nH]c2n(C)c1=O`, the Potency in the assay listed under Bos taurus was 2.3.
Same read-out and setting: for `COc1ccc(-c2nc3c(=O)n(C)c(=O)n(C)c3[nH]2)c(OC)c1` the value was 0.7.
In the assay filed under Bos taurus, `Cc1ccc(-c2nc3c(=O)n(C)c(=O)n(C)c3[nH]2)c(N)c1` had a Potency of 2.
As to `CCCn1c(=O)c2[nH]c(-c3ccccc3)nc2n(CCC)c1=O`, on Adenosine receptor A1 [1], it took 0.7 nM to reach half-maximal inhibition (IC50).
With `Cn1c(=O)c2nc(-c3ccc(O)cc3)[nH]c2n(C)c1=O`, the Potency in the assay listed under Bos taurus was 2.7.
Turning to `CCn1c(=O)c2[nH]c(-c3cccc(S(=O)(=O)O)c3)nc2n(CC)c1=O`, the IC50 turned out to be 8420 nM against Adenosine receptor A1 [1] and 30700 nM on Adenosine receptor A1 [2].
On the same counts, the results for `C=CCn1c(=O)c2nc(-c3ccc(S(=O)(=O)O)cc3)[nH]c2n(CC=C)c1=O` are 1140 nM and 7440 nM.
`Cn1c(=O)c2[nH]c(-c3ccccc3F)nc2n(C)c1=O` registered an IC50 on Adenosine receptor A1 [1] of 12.5 nM.
Take `Cn1c(=O)c2nc(-c3ccc([N+](=O)[O-])cc3N)[nH]c2n(C)c1=O`: the Potency in the assay filed under Bos taurus worked out at 2.6.
As for `CC(C)c1ccc(-c2nc3c(=O)n(C)c(=O)n(C)c3[nH]2)cc1`, the Potency in the assay filed under Bos taurus was determined as 2.6.
Regarding `CCCn1c(=O)c2nc(-c3ccc(N)cc3N)[nH]c2n(CCC)c1=O`, the IC50 against Adenosine receptor A1 [1] was found to be 0.15 nM. The Potency in the assay filed under Bos taurus came out at 3.82.
In the assay filed under Bos taurus, `CCCCOc1ccc(-c2nc3c(=O)n(C)c(=O)n(C)c3[nH]2)cc1` had a Potency of 2.4.
Same read-out and setting: under `Cn1c(=O)c2nc(-c3cccc(Br)c3)[nH]c2n(C)c1=O` stands 2.
Same read-out and setting: for `C=CCn1c(=O)c2[nH]c(-c3ccccc3)nc2n(C)c1=O` the value was 2.4; for `Cn1c(=O)c2nc(-c3ccc4ccccc4c3)[nH]c2n(C)c1=O`, 2.26; for `CN(C)c1cccc(-c2nc3c(=O)n(C)c(=O)n(C)c3[nH]2)c1`, 1.1.
The same measure, in the same setting: under `Cn1c(=O)c2nc(-c3ccc(I)cc3)[nH]c2n(C)c1=O` stands 2.89; under `Cn1c(=O)c2nc(-c3ccc(N)cc3)[nH]c2n(C)c1=O`, 2.76.
In the assay listed under Bos taurus, `Cn1c(=O)c2nc(-c3cccc(F)c3)[nH]c2n(C)c1=O` returned a Potency of 2.4.
For the compound `Cn1c(=O)c2[nH]c(-c3ccc(Cl)cc3N)nc2n(C)c1=O`, half-maximal inhibition on Adenosine receptor A1 [1] (IC50) was put at 0.35 nM.
Take `Cn1c(=O)c2nc(-c3ccc(C(=O)O)cc3)[nH]c2n(C)c1=O`: the Potency in the assay filed under Bos taurus was found to be 1.3.
Same read-out and setting: for `Cn1c(=O)[nH]c2[nH]c(-c3ccccc3)nc2c1=O` the value was 2.6; for `COc1cccc(-c2nc3c(=O)n(C)c(=O)n(C)c3[nH]2)c1`, 1.7.
On the same count and under the same terms, for `Cn1c(=O)c2nc(-c3cccc(O)c3)[nH]c2n(C)c1=O` the value was 2.22; for `Cn1c(=O)c2nc(-c3cccc([N+](=O)[O-])c3)[nH]c2n(C)c1=O`, 1.3.
In turn, `Cn1c(=O)c2nc(-c3cccc4ccccc34)[nH]c2n(C)c1=O` returned a Potency in the assay filed under Bos taurus of 1.1.
The same measure, in the same setting: for `Cn1c(=O)c2nc(-c3cccc(C(=O)O)c3)[nH]c2n(C)c1=O` the value was 0; for `CSc1ccc(-c2nc3c(=O)n(C)c(=O)n(C)c3[nH]2)cc1`, 2.7; for `Cn1c(=O)c2nc(-c3ccc(F)cc3)[nH]c2n(C)c1=O`, 2.46.
Regarding `Cc1ccccc1-c1nc2c([nH]1)c(=O)n(C)c(=O)n2C`, at Adenosine receptor A1 [1], the IC50 was 6.5 nM.
For `Cn1c(=O)c2nc(-c3cccc(N)c3)[nH]c2n(C)c1=O`, in the assay filed under Bos taurus, the Potency is 2.
On to `Cn1c(=O)c2nc(-c3ccccc3[N+](=O)[O-])[nH]c2n(C)c1=O`, for which, in the assay filed under Bos taurus, the Potency stood at 1.1.
As for `Cn1c(=O)c2[nH]c(-c3ccc(S(=O)(=O)O)cc3)nc2n(C)c1=O`, on Adenosine receptor A1 [1], the IC50 amounted to 21.9 nM. This lies in the double-digit nanomolar range.
`COc1ccccc1-c1nc2c(=O)n(C)c(=O)n(C)c2[nH]1` gave a Potency in the assay listed under Bos taurus of 0.46.
In the assay filed under Bos taurus, `Cn1c(=O)c2nc(-c3ccccc3O)[nH]c2n(C)c1=O` yielded a Potency of 2.
Still for that read-out and setting: for `COc1ccc(-c2nc3c(=O)n(C)c(=O)n(C)c3[nH]2)cc1` the value was 2.82; for `Cc1ccc(-c2nc3c(=O)n(C)c(=O)n(C)c3[nH]2)cc1`, 3.1.
For the compound `Cn1c(=O)c2nc(-c3ccc(Cl)cc3N)[nH]c2n(C)c1=O`, the Potency in the assay filed under Bos taurus is 3.46.
At Adenosine receptor A1 [1], `Cn1c(=O)c2[nH]c(-c3ccc(N)cc3)nc2n(C)c1=O` registered an IC50 of 1.75 nM.
`Cn1c(=O)c2nc(-c3ccc(N)cc3N)[nH]c2n(C)c1=O` came in with a Potency in the assay filed under Bos taurus of 2.1.
In the assay filed under Bos taurus, `CCn1c(=O)c2nc(-c3ccc(Br)cc3)[nH]c2n(CC)c1=O` came in with a Potency of 3.
Still for that read-out and setting: for `C=CCn1c(=O)c2[nH]c(-c3ccc(Cl)cc3N)nc2n(C)c1=O` the value was 2.7; for `CCCn1c(=O)c2nc(-c3ccc(Cl)cc3N)[nH]c2n(CCC)c1=O`, 4.3; for `Cc1cc(O)cc(C)c1-c1nc2c(=O)n(C)c(=O)n(C)c2[nH]1`, 1.52.
Same read-out and setting: for `C=CCn1c(=O)c2nc(-c3ccc(Cl)cc3N)[nH]c2n(CC=C)c1=O` the value was 3.1.
